From the NIST ThermoML archive (doi:10.1016/j.jct.2016.09.005)

Conditions: Liquid, Brillouin Light Scattering

CC(C)OC(C)C [diisopropyl ether]
Conditions	speed of sound [m/s]
302.38 K, 10000 kPa	1087.1
302.39 K, 4000 kPa	1011.9
302.48 K, 5500 kPa	1029.7
302.8 K, 8500 kPa	1052.4
302.91 K, 2500 kPa	1002.7
302.96 K, 1000 kPa	986.08
303.07 K, 7000 kPa	1037.8
307.45 K, 4000 kPa	987.23
307.61 K, 10000 kPa	1066.1
307.86 K, 5500 kPa	1009.4
307.87 K, 8500 kPa	1038.9
308 K, 1000 kPa	965.01
308.01 K, 7000 kPa	1020.5
308.28 K, 2500 kPa	974.68
312.8 K, 10000 kPa	1051
312.81 K, 8500 kPa	1010.4
312.88 K, 7000 kPa	995.2
312.91 K, 2500 kPa	961.97
312.92 K, 5500 kPa	979.14
313.05 K, 1000 kPa	943.07
313.14 K, 4000 kPa	969.4
317.72 K, 10000 kPa	1030.2
318.01 K, 5500 kPa	968.08
318.11 K, 1000 kPa	924.03
318.13 K, 8500 kPa	996.14
318.14 K, 2500 kPa	928.92
318.38 K, 7000 kPa	974.91
318.49 K, 4000 kPa	951.1
322.82 K, 10000 kPa	1007.1
323.15 K, 7000 kPa	960.56
323.3 K, 8500 kPa	972.88
323.31 K, 2500 kPa	912.04
323.5 K, 5500 kPa	943.6
323.62 K, 1000 kPa	901.5
323.71 K, 4000 kPa	924.8
327.56 K, 10000 kPa	994.72
327.75 K, 8500 kPa	964.89
327.97 K, 1000 kPa	881.1
328.08 K, 2500 kPa	887.66
328.1 K, 4000 kPa	901.06
328.13 K, 7000 kPa	936.62
328.17 K, 5500 kPa	923.15
332.93 K, 10000 kPa	963.31
332.94 K, 2500 kPa	869.98
333.01 K, 7000 kPa	920.95
333.08 K, 1000 kPa	855
333.25 K, 8500 kPa	943.92
333.31 K, 4000 kPa	888.08
333.57 K, 5500 kPa	897.12
337.63 K, 5500 kPa	882.64
337.69 K, 1000 kPa	846.25
337.75 K, 2500 kPa	857.76
337.85 K, 10000 kPa	946.87
337.89 K, 8500 kPa	917.48
337.93 K, 4000 kPa	867.64
338.11 K, 7000 kPa	896.43
343.33 K, 1000 kPa	819.28
343.57 K, 8500 kPa	904.65
343.67 K, 4000 kPa	845.53
343.79 K, 7000 kPa	878.38
343.82 K, 2500 kPa	827.84
343.88 K, 10000 kPa	923.89
343.97 K, 5500 kPa	864.56
347.31 K, 10000 kPa	915.04
347.41 K, 2500 kPa	807.03
347.59 K, 1000 kPa	802.59
347.69 K, 4000 kPa	832.86
347.76 K, 8500 kPa	887.44
347.81 K, 5500 kPa	843.4
347.81 K, 7000 kPa	867.06
352.94 K, 4000 kPa	804.7
353.38 K, 8500 kPa	862.02
353.45 K, 1000 kPa	775.82
353.59 K, 2500 kPa	792.6
353.6 K, 5500 kPa	819.82
353.71 K, 7000 kPa	845.61
353.81 K, 10000 kPa	893.76
358.06 K, 10000 kPa	870.54
358.52 K, 8500 kPa	846.91
358.55 K, 5500 kPa	807.15
358.76 K, 1000 kPa	755.17
358.93 K, 2500 kPa	760.2
358.96 K, 4000 kPa	782.98
359.03 K, 7000 kPa	821.85
362.67 K, 1000 kPa	737.96
362.78 K, 5500 kPa	786.13
362.9 K, 10000 kPa	855.96
362.95 K, 8500 kPa	828.91
363.08 K, 7000 kPa	809.07
363.21 K, 2500 kPa	747.41
363.41 K, 4000 kPa	767.15
367.56 K, 7000 kPa	793.16
367.57 K, 5500 kPa	769.09
367.78 K, 4000 kPa	751.56
367.82 K, 8500 kPa	809.14
367.96 K, 10000 kPa	835.29
368.03 K, 1000 kPa	715.17
368.26 K, 2500 kPa	726.3
372.68 K, 10000 kPa	816.27
372.8 K, 7000 kPa	771.64
373.15 K, 5500 kPa	753.88
373.21 K, 8500 kPa	788.43
373.29 K, 2500 kPa	712.12
373.37 K, 4000 kPa	726.56
373.57 K, 1000 kPa	697.04
377.41 K, 1000 kPa	679.66
377.54 K, 7000 kPa	749.64
377.85 K, 4000 kPa	712.4
377.85 K, 5500 kPa	728.98
377.97 K, 8500 kPa	770.84
378.05 K, 2500 kPa	690.57
378.3 K, 10000 kPa	803.55
382.72 K, 1000 kPa	654.9
382.77 K, 7000 kPa	734.01
382.78 K, 10000 kPa	787
382.83 K, 5500 kPa	710.48
382.88 K, 8500 kPa	754.35
383.06 K, 2500 kPa	665.89
383.26 K, 4000 kPa	691.26
387.78 K, 4000 kPa	674.22
388 K, 7000 kPa	713.08
388.09 K, 5500 kPa	694.59
388.3 K, 8500 kPa	735.65
388.31 K, 2500 kPa	653.57
388.68 K, 1000 kPa	634.3
388.86 K, 10000 kPa	760.66
392.26 K, 2500 kPa	635.1
392.28 K, 5500 kPa	675.48
392.33 K, 7000 kPa	701.13
392.5 K, 4000 kPa	658.79
392.65 K, 10000 kPa	747.04
392.79 K, 8500 kPa	722.68
393.19 K, 1000 kPa	615.78
397.81 K, 4000 kPa	632.66
397.95 K, 2500 kPa	613.31
398.22 K, 5500 kPa	653.67
398.25 K, 1000 kPa	589.15
398.32 K, 8500 kPa	702.44
398.37 K, 7000 kPa	674.76
398.9 K, 10000 kPa	728.83
402.67 K, 7000 kPa	662.53
402.77 K, 5500 kPa	638.47
402.88 K, 2500 kPa	590.27
403.23 K, 8500 kPa	683.98
403.4 K, 4000 kPa	612.03
403.45 K, 1000 kPa	570.56
403.45 K, 10000 kPa	709.11
407.64 K, 5500 kPa	623.08
407.75 K, 10000 kPa	693.65
408.1 K, 7000 kPa	642.44
408.23 K, 8500 kPa	667.12
408.31 K, 4000 kPa	592.12
408.37 K, 2500 kPa	571.15
408.65 K, 1000 kPa	544.68
412.43 K, 2500 kPa	550.12
412.43 K, 5500 kPa	606.9
412.66 K, 1000 kPa	530.21
412.7 K, 4000 kPa	576.58
412.83 K, 10000 kPa	681.56
412.95 K, 8500 kPa	646.94
413.28 K, 7000 kPa	622.07
418.22 K, 2500 kPa	532.67
418.42 K, 8500 kPa	627.35
418.54 K, 5500 kPa	583.39
418.59 K, 10000 kPa	659.95
418.87 K, 7000 kPa	603.43
418.91 K, 4000 kPa	554.62
419.01 K, 1000 kPa	502.48
423.21 K, 1000 kPa	482.17
423.5 K, 4000 kPa	536.96
423.62 K, 8500 kPa	613.79
423.75 K, 7000 kPa	590.42
423.79 K, 5500 kPa	567.31
423.9 K, 10000 kPa	640.34
424.09 K, 2500 kPa	502.49
427.41 K, 7000 kPa	578.56
427.66 K, 1000 kPa	460.04
427.92 K, 8500 kPa	597.25
428.03 K, 4000 kPa	520.63
428.26 K, 2500 kPa	490.5
428.45 K, 5500 kPa	546.98
428.53 K, 10000 kPa	625.16
432.35 K, 10000 kPa	618.58
432.63 K, 5500 kPa	529.89
432.77 K, 8500 kPa	581.79
432.83 K, 7000 kPa	558.11

Conditions	speed of sound [m/s]
303.08 K	986.38
318.27 K	915.66
333.62 K	852.5
347.96 K	790.74
362.87 K	731.21
378.14 K	662.26
393.15 K	593.47
402.97 K	552.35
412.75 K	514.15
422.75 K	469.11
432.74 K	426.77
